What is called MIC is the lowest concentration found to suppress growth. A word on the CC50: it is the concentration giving 50% cytotoxicity. Low readings indicate harm at low concentration, high ones better tolerance by the cells. What is called logD is the decadic logarithm of the distribution of all forms, ionised or not, between an organic phase and buffer at a given pH. Lower therefore signals lower lipophilicity.

Data set [1] concerns Escherichia coli. The experiment in a line: Antibacterial activity against Escherichia coli. It counts as functional, organism-based.
Data set [2] relates to Pseudomonas aeruginosa. The experiment in a line: Antibacterial activity against multidrug resistance Pseudomonas aeruginosa. In kind it is functional, organism-based.
The next data set concerns Acinetobacter. The experiment in a line: Antibacterial activity against Acinetobacter sp. In kind it is functional, organism-based.
Data set [3] deals with Klebsiella pneumoniae. The experiment in a line: Antibacterial activity against Klebsiella pneumoniae. It counts as functional, organism-based.
The subject of data set [4] is Klebsiella pneumoniae. The experiment in a line: Antibacterial activity against Klebsiella pneumoniae ATCC 10031 assessed as bacterial growth inhibition. It counts as functional.
A further data set concerns HepG2. The experiment in a line: Cytotoxicity against human HepG2 cells. In kind it is functional.
Data set [5] relates to Klebsiella pneumoniae. The experiment in a line: Antibacterial activity against Klebsiella pneumoniae ATCC 700721 assessed as bacterial growth inhibition. It counts as functional.
In data set [6] the test system is Acinetobacter baumannii. The experiment in a line: Antibacterial activity against Acinetobacter baumannii ATCC 19606 assessed as bacterial growth inhibition. In kind it is functional. The following applies: ATCC 19606 = CIP 70.34 = JCM 6841.
For data set [7], the system named is Klebsiella pneumoniae. The experiment in a line: Antibacterial activity against Klebsiella pneumoniae IHMA 1387833 assessed as bacterial growth inhibition. It counts as functional.
The subject of data set [8] is Pseudomonas aeruginosa. The experiment in a line: Antibacterial activity against Pseudomonas aeruginosa ATCC 15692 assessed as bacterial growth inhibition. In kind it is functional.
Data set [9] in a line: Cytotoxicity against HEK293 cells. The following applies: human, HEK293 cells. It counts as cell-based.
Data set [10] can be described thus: Lipophilicity, logD of compound. Particulars: octanol/water. It counts as physicochemical.
The subject of data set [11] is Klebsiella pneumoniae. The experiment in a line: Antibacterial activity against Klebsiella pneumoniae JCM 1662 assessed as bacterial growth inhibition. In kind it is functional.
In data set [12] the test system is Pseudomonas aeruginosa. The experiment in a line: Antibacterial activity against Pseudomonas aeruginosa ATCC 27853 assessed as bacterial growth inhibition. It counts as functional.
Data set [13] has as its system Acinetobacter baumannii. The experiment in a line: Antibacterial activity against Acinetobacter baumannii IHMA 1312713 assessed as bacterial growth inhibition. It counts as functional.
In data set [14] the test system is Pseudomonas aeruginosa. The experiment in a line: Antibacterial activity against Pseudomonas aeruginosa IHMA 1375891 assessed as bacterial growth inhibition. It counts as functional.
Data set [15] relates to Escherichia coli. The experiment in a line: Antibacterial activity against Escherichia coli ATCC 47076 assessed as bacterial growth inhibition. In kind it is functional.

Values after ≈ are worked out from the molar mass of the structure shown. Active and inactive are the calls of the source. The rule behind the calls is not given here.

Turning to `C/C=C1\NC(=O)C(NC(=O)CCCCCCCCCCC)C(O)CNC(=O)C(C(O)CN)NC(=O)C(C(O)CN)NC(=O)[C@H](CCCNC(=N)N)NC[C@H](CC(C)C)NC(=O)[C@H](CCN)NC1=O` (stereo partly drawn), the result in the data set with Escherichia coli [1] and in the data set with Pseudomonas aeruginosa [2] was Active. Besides, the result with Acinetobacter and with Klebsiella pneumoniae [3] was inactive.

In the case of `C/C=C1\NC(=O)C(NC(=O)c2cc3cc(Cl)ccc3o2)C(O)CNC(=O)C(C(O)CN)NC(=O)C(C(O)CN)NC(=O)[C@H](CCCNC(=N)N)NC(=O)[C@H](CC(C)C)NC(=O)[C@H](CCN)NC1=O` (stereo partly drawn), the minimal inhibitory concentration (MIC) is 2 µg/mL (≈ 2.04 µM) in the data set on Klebsiella pneumoniae [4]; 8 µg/mL (≈ 8.17 µM) in the data set with Klebsiella pneumoniae [5]; 2 µg/mL (≈ 2.04 µM) in the data set on Acinetobacter baumannii [6]; over 256 µg/mL in the data set with Klebsiella pneumoniae [7]; over 256 µg/mL in the data set with Pseudomonas aeruginosa [8]; over 256 µg/mL with Klebsiella pneumoniae [11]. For the same compound, the MIC with Pseudomonas aeruginosa [12] was 4 µg/mL (≈ 4.08 µM); with Acinetobacter baumannii [13] it was 256 µg/mL (≈ 261 µM); in the data set on Pseudomonas aeruginosa [14], over 256 µg/mL; with Escherichia coli [15], 2 µg/mL (≈ 2.04 µM). Besides, the CC50 (in the data set on HepG2; in data set [9]) was over 64 µM each time. In data set [10], this compound gave a logD of 2.829.

`C/C=C1\NC(=O)C(NC(=O)CCCCCCCCC)C(O)CNC(=O)C(C(O)CN)NC(=O)C(C(O)CN)NC(=O)[C@H](CCCNC(=N)N)NC[C@H](CC(C)C)NC(=O)[C@H](CCN)NC1=O` (stereo partly drawn): the outcome in the data set with Escherichia coli [1] and with Pseudomonas aeruginosa [2] was Active. In addition, the outcome in the data set on Acinetobacter and with Klebsiella pneumoniae [3] was inactive.

As for `C/C=C1\NC(=O)C(NC(=O)c2cn3c4c(c(F)c(F)cc4c2=O)OC[C@@H]3C)C(O)CNC(=O)C(C(O)CN)NC(=O)C(C(O)CN)NC(=O)[C@H](CCCNC(=N)N)NC(=O)[C@H](CC(C)C)NC(=O)[C@H](CCN)NC1=O` (stereo partly drawn), the MIC is over 64 µg/mL in the data set on Klebsiella pneumoniae [4]; 64 µg/mL (≈ 60.1 µM) in the data set with Klebsiella pneumoniae [5]; over 64 µg/mL in the data set on Acinetobacter baumannii [6]; over 64 µg/mL with Klebsiella pneumoniae [7]; over 64 µg/mL with Pseudomonas aeruginosa [8]; over 64 µg/mL in the data set on Klebsiella pneumoniae [11]. In addition, the MIC in the data set with Pseudomonas aeruginosa [12] is 16 µg/mL (≈ 15 µM); in the data set on Acinetobacter baumannii [13], over 64 µg/mL; with Pseudomonas aeruginosa [14], over 64 µg/mL; in the data set with Escherichia coli [15], 32 µg/mL (≈ 30.1 µM). Moreover, the CC50 (in the data set on HepG2; in data set [9]) was over 64 µM each time.

As to `C/C=C1\NC(=O)C(NC(=O)C2CCCN(C(=O)c3ccc(Cl)c(Cl)c3)C2)C(O)CNC(=O)C(C(O)CN)NC(=O)C(C(O)CN)NC(=O)[C@H](CCCNC(=N)N)NC(=O)[C@H](CC(C)C)NC(=O)[C@H](CCN)NC1=O` (stereo partly drawn), the MIC with Klebsiella pneumoniae [4], in the data set with Klebsiella pneumoniae [5], in the data set with Acinetobacter baumannii [6], in the data set with Klebsiella pneumoniae [7], in the data set with Pseudomonas aeruginosa [8] and with Klebsiella pneumoniae [11] was over 256 µg/mL in each case. The MIC is 32 µg/mL (≈ 29.5 µM) in the data set on Pseudomonas aeruginosa [12], over 256 µg/mL in the data set on Acinetobacter baumannii [13], over 256 µg/mL in the data set with Pseudomonas aeruginosa [14] and 8 µg/mL (≈ 7.37 µM) in the data set with Escherichia coli [15]. Also, the 50% cytotoxic concentration (CC50) (in the data set on HepG2; in data set [9]) was over 64 µM in each case.

With `C/C=C1\NC(=O)C(NC(=O)CCC/C=C\CCCCCC)C(O)CNC(=O)C(C(O)CN)NC(=O)C(C(O)CN)NC(=O)[C@H](CCCNC(=N)N)NC[C@H](CC(C)C)NC(=O)[C@H](CCN)NC1=O` (stereo partly drawn), the result in the data set with Escherichia coli [1] and in the data set with Pseudomonas aeruginosa [2] was Active. Moreover, the result in the data set on Acinetobacter and with Klebsiella pneumoniae [3] was inactive.

As to `C/C=C1\NC(=O)C(NC(=O)CCCCC/C=C\CCCCCC)C(O)CNC(=O)C(C(O)CN)NC(=O)C(C(O)CN)NC(=O)[C@H](CCCNC(=N)N)NC[C@H](CC(C)C)NC(=O)[C@H](CCN)NC1=O` (stereo partly drawn), the outcome with Escherichia coli [1] and in the data set on Pseudomonas aeruginosa [2] was Active. Also, the result in the data set with Acinetobacter and with Klebsiella pneumoniae [3] was inactive.

For the origin of these results see ChEMBL document CHEMBL4819127, “Syntheses and antimicrobial activities of ogipeptin derivatives” (Bioorg Med Chem Lett, 2021).
